From patent US20120274239A1, “METHOD OF MANUFACTURING ORGANIC ELECTROLUMINESCENCE DISPLAY DEVICE AND ELECTRONIC EQUIPMENT INCLUDING ORGANIC ELECTROLUMINESCENCE DISPLAY DEVICE MANUFACTURED BY THE MANUFACTURING METHOD” (CANON KABUSHIKI KAISHA, priority 2011, published 2012)

How the values were obtained:
[1] = etching rate (dissolution rate) of a deposited layer in the IPA/water mixed solvent; type: physicochemical; details: IPA 60 wt %; for etching rate: layer of the compound, polar solvent: IPA/water mixed solvent
From the text: In the present invention, a larger etching rate means a higher dissolution rate. In addition, a larger etching rate means a higher solubility of a layer having a material of interest in the solvent (polar solvent).
FIG. 3 is a graph illustrating thickness changes in the compound 1 and the compound A2 over an etching time. Here, FIG. 3 illustrates the results of the etching of the respective layers when a mixed solvent obtained by mixing isopropyl alcohol (IPA) and water so that IPA may account for 60 wt % (hereinafter, sometimes referred to as “IPA/water mixed solvent”) is used as a polar solvent.
On the other hand, the thickness of a layer (layer B) formed of the compound A2 as a heterocyclic compound reduces over time. When the etching rates of the respective layers are calculated with their etching conditions made identical to each other, the etching rate of the layer A is 0.008 nm/sec but the etching rate of the layer B is 0.87 nm/sec, that is, a ratio of the latter to the former is about 100.
Here, a ratio (n) between the etching rates of the uppermost layer (layer A) of the organic compound layer and the lowermost layer (layer B) of the release layer by the polar solvent used upon removal of the release layer under the same temperature conditions can be represented like the following equation.
Next, the photosensitive resin layer 41 was removed by performing dry etching with oxygen as a reactant gas under the conditions of a flow rate of 20 sccm, a pressure of 8 Pa, and an output of 150 W (FIG. 2L). Next, the release layer 30 was removed with a mixed solvent obtained by mixing water and IPA so that an IPA concentration was 60 wt % (FIG. 2M). It should be noted that as the etching rate of the compound (phenanthroline derivative represented by the formula (2)) constituting the release layer 30 in this example was 0.9 nm/sec, the release layer 30 was removed through immersion in the mixed solvent for 600 seconds. Next, vacuum heating was performed at 80° C. so that the solvent remaining on the organic compound layer was removed. It should be noted that the etching rate of the compound represented by the formula (1) serving as the uppermost layer of the organic compound layer placed in each sub-pixel for the polar solvent used for removing the release layer is about 0.0045 nm/sec, which is sufficiently small as compared with the etching rate of the release layer 30.

[2] = solubility in the IPA/water mixed solvent (FIG. 4); type: physicochemical; details: IPA/water mixed solvent having an IPA concentration of 80 wt %
From the text: The solubility of a compound as a constituent material for each layer in the IPA/water mixed solvent varies depending on the weight ratio of IPA in the mixed solvent. FIG. 4 is a graph illustrating the solubilities of the compound 1 (condensed polycyclic hydrocarbon compound) and the compound A2 (heterocyclic compound) in the IPA/water mixed solvent (polar solvent). Here, in the graph of FIG. 4, the axis of abscissa indicates the weight percent concentration of IPA in the IPA/water mixed solvent, and the axis of ordinate indicates the amount of the condensed polycyclic hydrocarbon compound or heterocyclic compound to dissolve in 1 g of the solvent.

Row | Compound | etching rate [1] [nm/s] | also measured
1 | c1ccc(-n2c(-c3cc(-c4nc5ccccc5n4-c4ccccc4)cc(-c4nc5ccccc5n4-c4ccccc4)c3)nc3ccccc32)cc1 [compound A7] | 1.6 | –
2 | O=C1c2ccccc2OC2C=CC(c3cccc(-c4cccc(-c5cc(-c6cccc(-c7ccccc7)c6)cc(-c6cccc(-c7ccccc7)c6)c5)c4)c3)=CC12 (stereo not drawn) [compound Cl] | 1.5 | –
3 | CC(C)(C)c1cc2ccc3ccc(B4OC(C)(C)C(C)(C)O4)c4ccc(c1)c2c34 [compound D8] | 3.0 | –
4 | c1ccc(-c2cc(-c3ccccc3)cc(-c3cccc(-c4cccc(-c5ccc6c7ccccc7c7ccccc7c6c5)c4)c3)c2)cc1 [compound B1] | 1.3 | –
5 | O=S(=O)(Oc1ccc2cc(-c3ccc4ccccc4c3)ccc2c1)C(F)(F)F [compound D6] | 2.5 | –
6 | CC1(C)c2cc(-c3ccc4ccc5cccc6ccc3c4c56)ccc2-c2ccc(-c3ccc4ccc5cccc6ccc3c4c56)cc21 [compound 1] | 0.008 | etching rate ([1]; listed as formula (1)): about 0.0045 nm/sec; amount to dissolve in 1 g of the solvent [2]: 5 µg
7 | CC1(C)c2ccccc2-c2ccc(-c3ccc4ccc5ccc(-c6ccc7c(c6)C(C)(C)c6ccccc6-7)nc5c4n3)cc21 [compound A2] | 0.87 | etching rate ratio (n) of layer B (release layer) to layer A (uppermost organic compound layer) ([1]; compound A2 layer versus compound 1 layer, IPA/water mixed solvent, identical etching conditions): about 100; etching rate ([1]; listed as formula (2)): 0.9 nm/s; amount to dissolve in 1 g of the solvent [2]: 73 µg
